For orientation: inhibition means the share of the control response that was lost under treatment.

Structures are written as SMILES.

The first assay deals with T1, chimeric human H3 receptor (Homo sapiens, UniProt Q9Y5N1).
T1 construct: made in house; host or cells: Sf9 insect cells (baculovirus); P2 membrane preparation
T1 sequence (Q9Y5N1 with tags, fused parts or gaps): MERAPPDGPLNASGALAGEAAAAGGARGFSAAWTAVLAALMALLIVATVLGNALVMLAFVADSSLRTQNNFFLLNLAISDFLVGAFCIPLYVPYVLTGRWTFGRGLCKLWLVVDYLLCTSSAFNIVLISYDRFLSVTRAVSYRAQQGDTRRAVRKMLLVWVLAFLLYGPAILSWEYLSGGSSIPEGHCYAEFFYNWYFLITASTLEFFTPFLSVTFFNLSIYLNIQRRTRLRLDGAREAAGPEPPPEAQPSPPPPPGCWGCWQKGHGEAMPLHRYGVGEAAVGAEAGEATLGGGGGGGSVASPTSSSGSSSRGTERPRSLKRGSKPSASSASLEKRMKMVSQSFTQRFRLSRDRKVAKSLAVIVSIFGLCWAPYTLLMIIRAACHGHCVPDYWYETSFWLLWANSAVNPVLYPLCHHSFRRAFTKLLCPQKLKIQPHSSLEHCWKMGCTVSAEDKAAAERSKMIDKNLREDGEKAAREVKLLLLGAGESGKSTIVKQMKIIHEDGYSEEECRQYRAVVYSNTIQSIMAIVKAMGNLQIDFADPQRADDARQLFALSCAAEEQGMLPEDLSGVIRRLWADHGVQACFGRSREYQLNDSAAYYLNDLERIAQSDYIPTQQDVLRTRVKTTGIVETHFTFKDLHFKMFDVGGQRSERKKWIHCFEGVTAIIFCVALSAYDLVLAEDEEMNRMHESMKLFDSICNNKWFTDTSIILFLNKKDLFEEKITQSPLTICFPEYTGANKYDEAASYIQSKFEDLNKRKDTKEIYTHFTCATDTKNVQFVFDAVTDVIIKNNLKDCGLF
In words: Chimeric human H3 receptor screening GTP binding assay (inhibition of histamine-stimulated GTP-gamma35S binding, Example 8). Format: biochemical. As to conditions: 4 μM of the compound, 1 μM histamine, "†" in Ki of Table II, read-out: percent inhibition of the signal obtained with 1 μM histamine. Summed up:
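Sf9 membranes co-expressing chimeric human H3 receptor and heterotrimeric G-protein, 35 μg per reaction, incubated 60 min at room temperature with 4 μM compound, 1 μM histamine, 10 μM GDP and […] GTP-gamma35S at pH 7.4. Filter-bound radioactivity counted. Result expressed as percent inhibition of the histamine signal after subtracting non-specific binding (10 μM GTP-gammaS).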
On the technique in general: Binding of GTPγS marks nucleotide exchange on a G protein.
On to `CCc1ccc(-c2ccc3c(c2)CCN(CC(=O)N2CCN(C4CCC4)CC2)C3)cc1` [Compound 459, 2-[2-(4-cyclobutylpiperazin-1-yl)-2-oxoethyl]-6-(4-ethylphenyl)-1,2,3,4-tetrahydroisoquinoline], for which the inhibition at 4 µM was no less than 90%. Consider `CCCc1ccc(-c2ccc3c(c2)CCN(CC(=O)N2CCN(C4CCCC4)CC2)C3)cc1` [Compound 464, 2-[2-(4-cyclopentylpiperazin-1-yl)-2-oxoethyl]-6-(4-propylphenyl)-1,2,3,4-tetrahydroisoquinoline], for which the inhibition at 4 µM was no less than 90%. On the same count and under the same terms, in the case of `CC(C)(C)c1ccc(-c2ccc3c(c2)CCN(CC(=O)N2CCN(C4CCC4)CC2)C3)cc1` [Compound 471, 6-(4-tert-butylphenyl)-2-[2-(4-cyclobutylpiperazin-1-yl)-2-oxoethyl]-1,2,3,4-tetrahydroisoquinoline] it was no less than 90%; in that of `O=C(CN1CCc2cc(-c3ccc(Cl)cc3)ccc2C1)N1CCN(C2CCCCC2)CC1` [Compound 406, 6-(4-chlorophenyl)-2-[2-(4-cyclohexylpiperazin-1-yl)-2-oxoethyl]-1,2,3,4-tetrahydroisoquinoline], no less than 90%.

On to `CC(C)(C)c1ccc(-c2ccc3c(c2)CCN(CC(=O)N2CCN(C4CCCC4)CC2)C3)cc1` [Compound 472, 6-(4-tert-butylphenyl)-2-[2-(4-cyclopentylpiperazin-1-yl)-2-oxoethyl]-1,2,3,4-tetrahydroisoquinoline], for which the inhibition at 4 µM is no less than 90%.

Still in this assay, the particulars now being: Table II "Ki", symbol †, 4 μM of the compound, 1 μM histamine, read-out: percent inhibition of the signal obtained with 1 μM histamine.
Take `COc1ccc2cc(-c3ccc4c(c3)CCN(CC(=O)N3CCN(C(C)C)CC3)C4)ccc2c1` [Compound 512, 2-[2-(4-isopropylpiperazin-1-yl)-2-oxoethyl]-6-(6-methoxy-2-naphthyl)-1,2,3,4-tetrahydroisoquinoline]: the inhibition at 4 µM is no less than 90%.

As to `CC(C)Oc1cccc(-c2ccc3c(c2)CCN(CC(=O)N2CCN(C4CCCC4)CC2)C3)c1` [Compound 514, 2-[2-(4-cyclopentylpiperazin-1-yl)-2-oxoethyl]-6-(3-isopropoxyphenyl)-1,2,3,4-tetrahydroisoquinoline], the inhibition at 4 µM is no less than 90%. For the molecule `CC(C)N1CCN(C(=O)CN2CCc3cc(-c4cc(F)ccc4F)ccc3C2)CC1` [Compound 585, 6-(2,5-difluorophenyl)-2-[2-(4-isopropylpiperazin-1-yl)-2-oxoethyl]-1,2,3,4-tetrahydroisoquinoline], the inhibition at 4 µM is no less than 90%. On the same count and under the same terms, for `COC1CCCN(c2ccc3c(n2)CCN(CC(=O)N2CCN(C4CCC4)CC2)C3)C1` (centres unmarked) [Compound 671, 6-[2-(4-cyclobutylpiperazin-1-yl)-2-oxoethyl]-2-(3-methoxypiperidin-1-yl)-5,6,7,8-tetrahydro-1,6-naphthyridine] the value was no less than 90%; for `O=C(CN1CCc2cc(-c3ccc(F)cc3F)ccc2C1)N1CCN(C2CCCCC2)CC1` [Compound 588, 2-[2-(4-cyclohexylpiperazin-1-yl)-2-oxoethyl]-6-(2,4-difluorophenyl)-1,2,3,4-tetrahydroisoquinoline], no less than 90%. On the same count and under the same terms, in the case of `CCCOc1ccc(-c2ccc3c(c2)CCN(CC(=O)N2CCN(C4CCCCC4)CC2)C3)cc1` [Compound 546, 2-[2-(4-cyclohexylpiperazin-1-yl)-2-oxoethyl]-6-(4-propoxyphenyl)-1,2,3,4-tetrahydroisoquinoline] it was no less than 90%; in that of `CC(C)N1CCN(C(=O)CN2CCc3cc(-c4cccc(OC(F)(F)F)c4)ccc3C2)CC1` [Compound 493, 2-[2-(4-isopropylpiperazin-1-yl)-2-oxoethyl]-6-[3-(trifluoromethoxy)phenyl]-1,2,3,4-tetrahydroisoquinoline], no less than 90%; in that of `COc1ccc(OC)c(-c2ccc3c(c2)CCN(CC(=O)N2CCN(C4CCCCC4)CC2)C3)c1` [Compound 561, 2-[2-(4-cyclohexylpiperazin-1-yl)-2-oxoethyl]-6-(2,5-dimethoxyphenyl)-1,2,3,4-tetrahydroisquinoline], no less than 90%.

Regarding `O=C(CN1CCc2cc(-c3cc(F)ccc3F)ccc2C1)N1CCN(C2CCCC2)CC1` [Compound 583, 2-[2-(4-cyclopentylpiperazin-1-yl)-2-oxoethyl]-6-(2,5-difluorophenyl)-1,2,3,4-tetrahydroisoquinoline], the inhibition at 4 µM is no less than 90%.

Source of the values: US20110082130A1 (LIGAND PHARMACEUTICALS, INC., priority 2006, published 2011).
